In brackets after ≈: the same amount, converted by molar mass.
Legend:
Escherichia coli [1] = test: Effect on growth of Escherichia coli J53 expressing SHV5/ AmpC/TEM-1 after 16 to 20 hrs by CLSI-based microbroth dilution method; format: organism-based; conditions: in vivo
[2] = target: Beta-lactamase VIM-2 (Pseudomonas aeruginosa) (UniProt Q9K2N0); test: Inhibition of VIM-2 in Pseudomonas aeruginosa assessed as meropenem antibacterial activity at 4 ug/ml after 16 to 20 hrs by CLSI-based microbroth dilution method (Rvb >= […] ug/ml)
Escherichia coli [3] = test: Inhibition of TEM/CTX-M/SHV/Cephalosporinase in Escherichia coli CH1 assessed as cefepime antibacterial activity at 4 ug/ml after 16 to 20 hrs by CLSI-based microbroth dilution method (Rvb > […] ug/ml)
Klebsiella pneumoniae [4] = test: Antibacterial activity against Klebsiella pneumoniae UNT-065-1 expressing CTX-M14 infected in CD1 mouse assessed as log reduction in viable bacterial count in lung at 16 mg/kg, sc administered as single dose co-treated with 32 mg/kg cefepime and measured after 24 hrs post infection (reference value: 9.27 +/- 0.21); format: functional
Klebsiella pneumoniae [5] = test: Inhibition of TEM/CTX-M/SHV/KPC in Klebsiella pneumoniae 964-2 assessed as cefepime antibacterial activity at 4 ug/ml after 16 to 20 hrs by CLSI-based microbroth dilution method (Rvb > […] ug/ml)
Staphylococcus aureus = test: Effect on growth of wild type Staphylococcus aureus ATCC 29213 after 16 to 20 hrs by CLSI-based microbroth dilution method; format: organism-based
[6] = target: Matrix metalloproteinase-9 (Homo sapiens, UniProt P14780); test: Inhibition of human MMP9 at 100 uM
Matrix metalloproteinase-9, sequence (P14780 whole entry): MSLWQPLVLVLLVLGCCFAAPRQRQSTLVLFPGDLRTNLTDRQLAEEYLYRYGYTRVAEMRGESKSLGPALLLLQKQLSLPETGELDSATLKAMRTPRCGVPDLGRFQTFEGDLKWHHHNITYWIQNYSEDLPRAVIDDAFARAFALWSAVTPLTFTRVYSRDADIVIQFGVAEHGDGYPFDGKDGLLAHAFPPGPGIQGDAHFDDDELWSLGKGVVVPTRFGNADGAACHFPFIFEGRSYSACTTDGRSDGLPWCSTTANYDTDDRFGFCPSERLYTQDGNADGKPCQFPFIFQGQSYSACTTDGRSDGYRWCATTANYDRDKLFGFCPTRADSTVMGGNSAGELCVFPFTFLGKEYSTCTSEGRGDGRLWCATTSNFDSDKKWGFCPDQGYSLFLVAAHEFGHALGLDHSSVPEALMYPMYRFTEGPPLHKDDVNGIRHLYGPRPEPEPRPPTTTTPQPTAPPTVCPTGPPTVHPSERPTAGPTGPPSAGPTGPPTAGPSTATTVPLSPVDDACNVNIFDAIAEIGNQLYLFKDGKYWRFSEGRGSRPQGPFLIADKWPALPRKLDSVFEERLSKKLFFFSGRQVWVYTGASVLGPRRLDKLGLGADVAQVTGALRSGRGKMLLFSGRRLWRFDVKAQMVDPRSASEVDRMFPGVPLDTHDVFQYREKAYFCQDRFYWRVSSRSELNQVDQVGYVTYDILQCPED

Klebsiella pneumoniae [7] = test: Effect on growth of wild type Klebsiella pneumoniae CI 09 after 16 to 20 hrs by CLSI-based microbroth dilution method; format: organism-based
Cytochrome P450 2C9 = Cytochrome P450 2C9 (Homo sapiens, UniProt P11712); test: Inhibition of human CYP2C9 at 100 uM; format: ADME
Cytochrome P450 2C9, sequence (P11712 whole entry): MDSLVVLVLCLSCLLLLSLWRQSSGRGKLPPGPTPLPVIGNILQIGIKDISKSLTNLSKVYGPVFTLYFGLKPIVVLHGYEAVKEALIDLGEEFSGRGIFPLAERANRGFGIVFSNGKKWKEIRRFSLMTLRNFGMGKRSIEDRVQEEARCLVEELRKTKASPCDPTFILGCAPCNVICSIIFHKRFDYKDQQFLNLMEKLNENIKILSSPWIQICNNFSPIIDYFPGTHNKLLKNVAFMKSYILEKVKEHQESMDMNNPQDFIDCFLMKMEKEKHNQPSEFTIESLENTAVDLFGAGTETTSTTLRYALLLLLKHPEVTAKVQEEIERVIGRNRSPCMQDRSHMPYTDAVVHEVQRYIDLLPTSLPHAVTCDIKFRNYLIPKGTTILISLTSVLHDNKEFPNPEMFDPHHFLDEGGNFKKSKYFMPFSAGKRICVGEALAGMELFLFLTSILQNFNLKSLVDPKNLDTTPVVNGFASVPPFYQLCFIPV

Chymotrypsin = Chymotrypsin (Homo sapiens, UniProt Q99895+P17538+P40313+Q6GPI1); test: Inhibition of human chymotrypsin at 100 uM; format: protein assay
[8] = Cytotoxicity against human HeLa cells assessed as growth inhibition at 256 ug/ml relative to control; format: cell-based; conditions: read-out: Activity
[9] = Cytotoxicity against human Proximal tubule epithelial cells up to 1000 ug/ml relative to control; format: cell-based
Klebsiella pneumoniae [10] = test: Effect on growth of Klebsiella pneumoniae UMM expressing SHV5/KPC-2/TEM-1 after 16 to 20 hrs by CLSI-based microbroth dilution method; format: organism-based; conditions: in vivo
Klebsiella pneumoniae [11] = test: Effect on growth of Klebsiella pneumoniae 11978 expressing OXA-48 after 16 to 20 hrs by CLSI-based microbroth dilution method; format: organism-based; conditions: in vivo
Klebsiella pneumoniae [12] = test: Effect on growth of Klebsiella pneumoniae A-1797 expressing KPC-2/VIM-4/CMY-4 after 16 to 20 hrs by CLSI-based microbroth dilution method; format: organism-based; conditions: in vivo
Coagulation factor X = Coagulation factor X (Homo sapiens, UniProt P00742); test: Inhibition of human factor Xa at 100 uM
Coagulation factor X, sequence (P00742 41-179 limits assumed): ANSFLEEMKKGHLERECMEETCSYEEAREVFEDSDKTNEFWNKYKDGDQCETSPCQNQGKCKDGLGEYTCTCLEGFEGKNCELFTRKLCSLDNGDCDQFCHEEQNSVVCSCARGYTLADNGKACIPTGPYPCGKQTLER
Coagulation factor X, sequence (P00742 235-488 limits assumed): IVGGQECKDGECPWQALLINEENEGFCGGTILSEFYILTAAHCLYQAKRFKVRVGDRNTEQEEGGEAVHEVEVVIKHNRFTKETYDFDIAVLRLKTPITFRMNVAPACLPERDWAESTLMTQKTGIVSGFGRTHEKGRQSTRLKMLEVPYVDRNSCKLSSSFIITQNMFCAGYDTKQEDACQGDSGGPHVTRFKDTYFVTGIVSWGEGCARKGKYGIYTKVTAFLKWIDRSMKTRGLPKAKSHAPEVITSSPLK

Escherichia coli [13] = test: Inhibition of TEM/CTX-M/SHV/Cephalosporinase in Escherichia coli EC1552 assessed as cefepime antibacterial activity at 4 ug/ml after 16 to 20 hrs by CLSI-based microbroth dilution method (reference value: […] ug/ml)
Neutrophil elastase = Neutrophil elastase (Homo sapiens, UniProt P08246); test: Inhibition of human neutrophil elastase 2 at 100 uM
Neutrophil elastase, sequence (P08246 whole entry): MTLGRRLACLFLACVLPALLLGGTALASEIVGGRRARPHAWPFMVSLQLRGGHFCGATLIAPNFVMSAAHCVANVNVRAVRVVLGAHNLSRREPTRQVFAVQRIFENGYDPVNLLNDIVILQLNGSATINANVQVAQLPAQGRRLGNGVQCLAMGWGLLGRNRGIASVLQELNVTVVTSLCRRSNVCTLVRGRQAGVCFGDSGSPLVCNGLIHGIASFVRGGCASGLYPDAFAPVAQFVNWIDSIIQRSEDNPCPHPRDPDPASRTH

Cytochrome P450 2C19 = Cytochrome P450 2C19 (Homo sapiens, UniProt P33261); test: Inhibition of human CYP2C19 at 100 uM; format: ADME
Cytochrome P450 2C19, sequence (P33261 whole entry): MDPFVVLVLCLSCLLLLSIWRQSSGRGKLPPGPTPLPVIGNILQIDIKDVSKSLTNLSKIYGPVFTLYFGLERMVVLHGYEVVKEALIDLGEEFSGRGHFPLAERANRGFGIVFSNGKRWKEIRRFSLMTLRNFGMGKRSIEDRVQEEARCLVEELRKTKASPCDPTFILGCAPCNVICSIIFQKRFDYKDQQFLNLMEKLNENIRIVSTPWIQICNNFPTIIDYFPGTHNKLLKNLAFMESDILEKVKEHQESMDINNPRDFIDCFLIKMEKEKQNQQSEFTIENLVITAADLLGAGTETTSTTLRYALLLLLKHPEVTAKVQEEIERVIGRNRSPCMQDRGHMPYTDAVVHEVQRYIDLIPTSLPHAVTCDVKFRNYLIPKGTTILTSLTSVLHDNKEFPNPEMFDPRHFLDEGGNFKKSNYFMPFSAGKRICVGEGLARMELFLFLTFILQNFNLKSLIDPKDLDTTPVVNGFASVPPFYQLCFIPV

[14] = Inhibition of bacterial OXA-48 using nitrocefin as substrate preincubated for 15 mins followed by susbtrate addition and measured after 10 mins by spectrophotometric method; design: species or system Bacteria

Q: Which MIC (Escherichia coli [1]) does the source give for `NCCN[C@H]1CC[C@H](CC(=O)N[C@H]2Cc3cccc(C(=O)O)c3OB2O)CC1` here?
A: The MIC was over 128 µg/mL.

Q: And the MIC [2]?
A: The MIC was 0.06 µg/mL (≈ 0.154 µM).

Q: And the MIC (Escherichia coli [3])?
A: The MIC was under 0.125 µg/mL.

Q: What about the Activity (Klebsiella pneumoniae [4]) of the same molecule?
A: Its Activity is 4.51 log10CFU.

Q: And the MIC (Klebsiella pneumoniae [5])?
A: Its MIC is under 0.125 µg/mL.

Q: What about the MIC (Staphylococcus aureus) of the same molecule?
A: Its MIC is over 128 µg/mL.

Q: And the “inhibition (INH)” value [6]?
A: Its value is “Not Active”.

Q: What about the MIC (Klebsiella pneumoniae [7]) of the same molecule?
A: Its MIC is over 128 µg/mL.

Q: And the “inhibition (INH)” value (Cytochrome P450 2C9)?
A: Its value is “Not Active”.

Q: And the “inhibition (INH)” value (Chymotrypsin)?
A: Its value is “Not Active”.

Q: And the inhibition at 256 ug/ml [8]?
A: Its inhibition at 256 ug/ml is under 20%.

Q: What about the Activity [9] of the same molecule?
A: Its Activity is “Non-Toxic”.

Q: And the MIC (Klebsiella pneumoniae [10])?
A: Its MIC is over 128 µg/mL.

Q: And the MIC (Klebsiella pneumoniae [11])?
A: The MIC was over 128 µg/mL.

Q: And the MIC (Klebsiella pneumoniae [12])?
A: Its MIC is over 128 µg/mL.

Q: And the “inhibition (INH)” value (Coagulation factor X)?
A: Its value is “Not Active”.

Q: What about the MIC (Escherichia coli [13]) of the same molecule?
A: Its MIC is 0.5 µg/mL (≈ 1.28 µM).

Q: And the “inhibition (INH)” value (Neutrophil elastase)?
A: Its value is “Not Active”.

Q: What about the “inhibition (INH)” value (Cytochrome P450 2C19) of the same molecule?
A: The value was “Not Active”.

Q: And the IC50 [14]?
A: Its IC50 is 420 nM.

Source: ChEMBL document CHEMBL4354828, “Discovery of Taniborbactam (VNRX-5133): A Broad-Spectrum Serine- and Metallo-β-lactamase Inhibitor for Carbapenem-Resistant Bacterial Infections” (J Med Chem, 2020)
